In patent publication US8940748B2, “Iminothiadiazine dioxide compounds as BACE inhibitors, compositions, and their use” (Merck Sharp & Dohme Corp., priority 2009, dated 2015):
Read-outs that look alike come from different tables or passages of the source.

Experiments:
[1] = tested on: endogenous rat Aβ1-40 (Aβ40) in cortex; test: Cortical Aβ40 in rats after oral dosing (Luminex-based immunodetection); assay type: in vivo; settings: read-out: Change in rat cortex Aβ40
Method: The following procedures were used.
Male CD rats (˜100 g; Crl:CD(SD); Charles River Laboratories, Kingston, N.Y.) were group housed and acclimated to the vivarium for 5-7 days prior to use in a study. Compounds were formulated in 20% hydroxypropyl-β-cyclodextrin and administered orally with a dosing volume of 5 ml/kg for rats. Three h after drug administration, rats were euthanized with excess CO2. The brain was removed from the skull and immediately frozen on dry ice. All tissues were stored at −70° C. until Aβ quantification.
Ab585 was labeled with biotin (b-Ab585) by first dialyzing the antibody sample extensively versus PBS (pH 7.8) to remove impurities, followed by dilution to between 1 and 2 mg/mL protein concentration. EZ-Link Sulfo-NHS-LC-Biotin (Pierce) was dissolved in PBS (pH 7.8) at a concentration of 1 mg/mL immediately prior to use. Ab585 was labeled with EZ-Link Sulfo-NHS-LC-biotin using a 10:1 biotin:antibody ratio by incubation at room temperature for 1 hour. The labeling reaction was quenched by addition of 1.0 M glycine to a final concentration of 0.1 M followed by 10 minute incubation at room temperature. Glycine was removed by extensive dialysis versus PBS.
The antibody was coupled to the beads using the Bio-Plex Amine Coupling Kit (Bio-Rad) as per the manufacturer's recommendations.
Rat cortex Aβ40 levels were measured from guanidine HCl extracts of individual rat cortices using a Luminex-based immunodetection assay. Rat brains were thawed briefly at 37° C. and both mid- and hindbrain regions were removed. The remaining material, consisting primarily of cortex (˜800 mg) was carried through the guanidine extraction procedure. Cortices were added to a 2 ml BioPur tube (Eppendorf) along with a 6.35 mm chrome-coated steel ball and 1.0 ml of sucrose homogenization buffer (20 mM HEPES [pH 7.5], 50 mM KCl, 50 mM sucrose, 2 mM EDTA, 2 mM EGTA supplemented with complete protease inhibitors [Roche, EDTA-free]). Samples were then homogenized by agitation for 1.5 min at 30 cycles/sec in a MM300 tissue mixer (Retsch®). The resulting cortical homogenate was extracted with guanidine-HCl by mixing 67 μl of homogenate with 133 μl of 5 M Guanidine HCl, 50 mM Tris HCl (pH 8.0). To maximize the efficiency of Aβ extraction, samples were vortexed and then sonicated for 2 minutes in an ice bath using an Ultrasonics XL cup horn sonicator at a power setting of 8 (Heat Systems, Inc.). Insoluble material was removed by ultracentrifugation using a using a TLA-55 rotor in a TL-100 benchtop centrifuge (Beckman) at 100,000×g for 30 minutes. The resulting supernatant was then either diluted 1:10 in 5 M guanidine HCl, 0.05 M Tris HCl (pH 8.0) for protein analysis (BCA protein assay, Pierce Biochemicals) or assayed neat for Aβ40 levels. The Luminex rodent Aβ40 assay was performed as follows. First, 96 well filter binding plates (Millipore, catalogue # MSBVN12) were wetted with 100 μl of 1×LAβ40 buffer (0.05 M HEPES [pH 7.5], 0.2% BSA, 0.2% Tween-20, 0.15 M NaCl) by vacuum filtration on a Millipore 96-well manifold. The plate bottom was sealed and 100 μl of 1×LAβ40 buffer was added to each well followed by addition of 50 μl each of G2-10:COOH beads (1000 beads/well) and 50 μl b-Ab585 at 0.5 μg/ml in 1×LAβ40 buffer. Guanidine HCl was added to synthetic rodent Aβ40 standards in order to control for the effect of guanidine in brain extracts on the assay performance. Ten microliters of cortical extract, rodent Aβ40 standards or cortical extract from amyloid precursor protein knockout mice (to define background immunoreactivity) was added to each well. Plates were covered and incubated overnight at 4° C. Following the incubation, wells were cleared by vacuum and washed twice with 100 μl of 1×LAβ40 buffer on a Millipore manifold.

P-gp = test: Caco-2 bi-directional permeability; assay type: in vitro ADME; settings: human, Caco-2
Method: (§1) The bi-directional permeability with efflux potential of selected compounds of the invention vs. otherwise structurally identical iminopyrimidinones (collectively referred to as test compounds, shown in the table below) were assessed using Caco-2 cell line. The Caco-2 cells were maintained in DMEM (Dulbecco's Modified Eagle Medium) containing 10% fetal bovine serum, 1% non-essential amino acids, 2 mM L-glutamine, and 1% penicillin-streptomycin in an incubator at ˜37° C. in an atmosphere of 5% CO2 and about 90% relative humidity. The cell culture medium was changed three times weekly. Caco-2 cell monolayers were grown on polyethylene terephthalate filters using 24-well BD Falcon™ Cell Culture Insert Plates (0.33 cm^2 insert area, 1 μm pore size; BD BioSciences, Bedford, Mass.). The culture medium of the plate was changed every other day until used for the transport experiment (21-28 days post seeding).
(§2) The transport buffer (TM) was Hank's balanced salt solution (HBSS) with 10 mM HEPES and 25 mM glucose (pH 7.4) for dosing and TM with 4% bovine serum albumin for receiver (pH 7.4). The bi-directional permeability of the test compounds were tested at concentrations of 1, 10 and 100 μM was measured in triplicate with 2-hr incubation. The cell monolayer integrity was monitored with pre- and post-experimental trans-epithelial electrical resistance and post-experimental Lucifer Yellow (LY) permeability with 1 hr incubation.
(§3) The apparent permeability, recovery and efflux ratio values were calculated using the following equations:
(§4) where, • dCR/dt: The slope of the accumulative concentration in the receiver compartment versus time incubation (μM·s^−1) • C0hr: Donor concentration (μM) immediately after dosing • CD, final: Donor concentration (μM) at the end of incubation • S: Membrane surface area (cm^2) • VD: Volume of donor compartment (mL) • VR: Volume of receiver compartment (mL) • Papp-BLtoAP: Permeability from basolateral (BL) to apical (AP) transport

[2] = Caco-2 bi-directional permeability; assay type: in vitro ADME; settings: human, Caco-2; permeability apical to basolateral; read-out: Caco-2 AP→BL
Method: as §1, §2, §3, §4

[3] = target: purified human autoBACE-2 (Homo sapiens (Human), UniProt Q9Y5Z0); test: BACE-2 assay (BACE-HTRF, time-resolved endpoint proteolysis); assay type: biochemical; settings: Ki calculated from IC50 using the Cheng-Prusoff equation
Sequence of purified human autoBACE-2 (Q9Y5Z0 63-473 limits assumed): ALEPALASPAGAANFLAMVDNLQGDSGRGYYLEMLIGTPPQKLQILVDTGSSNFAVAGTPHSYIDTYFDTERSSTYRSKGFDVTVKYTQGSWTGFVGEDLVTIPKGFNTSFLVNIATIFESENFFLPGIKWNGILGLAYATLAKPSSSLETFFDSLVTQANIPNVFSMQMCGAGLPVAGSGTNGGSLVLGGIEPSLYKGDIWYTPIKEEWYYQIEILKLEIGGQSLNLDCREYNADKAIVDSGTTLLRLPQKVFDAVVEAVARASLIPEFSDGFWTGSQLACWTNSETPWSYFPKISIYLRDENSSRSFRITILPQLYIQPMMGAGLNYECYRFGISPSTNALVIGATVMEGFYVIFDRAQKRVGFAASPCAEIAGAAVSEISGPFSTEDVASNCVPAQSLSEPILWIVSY
Method: Inhibitor IC50s at purified human autoBACE-2 were determined in a time-resolved endpoint proteolysis assay that measures hydrolysis of the QSY7-[sequence]-Eu-amide FRET peptide substrate (BACE-HTRF assay). […] DMSO was present at 5% final concentration in the assay. Following laser excitation of sample wells at 320 nm, the fluorescence signal at 620 nm was collected for 400 ms following a 50 μs delay on a RUBYstar HTRF plate reader (BMG Labtechnologies). Raw RFU data was normalized to maximum (1.0 nM BACE/DMSO) and minimum (no enzyme/DMSO) RFU values. […] The Ki values were calculated from the IC50 using the Cheng-Prusoff equation.

[4] = target: soluble human BACE1 catalytic domain (Homo sapiens (Human), UniProt P56817); test: BACE1 HTRF FRET assay; assay type: biochemical; settings: Ki calculated from IC50 using the Cheng-Prusoff equation; read-out: BACE-1 Ki
Sequence of soluble human BACE1 catalytic domain (P56817 75-416): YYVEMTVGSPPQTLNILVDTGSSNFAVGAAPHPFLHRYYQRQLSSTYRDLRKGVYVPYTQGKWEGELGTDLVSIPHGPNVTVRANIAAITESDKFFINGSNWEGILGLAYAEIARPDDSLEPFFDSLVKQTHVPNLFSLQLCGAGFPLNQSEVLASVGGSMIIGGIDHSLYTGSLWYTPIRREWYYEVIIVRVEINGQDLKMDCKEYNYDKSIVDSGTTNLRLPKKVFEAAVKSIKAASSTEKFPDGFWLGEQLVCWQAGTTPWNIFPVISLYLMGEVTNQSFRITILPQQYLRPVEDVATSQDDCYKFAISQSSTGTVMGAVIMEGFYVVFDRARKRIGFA

Caco-2 cell line = test: Caco-2 bi-directional permeability; assay type: in vitro ADME; settings: permeability apical to basolateral
Method: as §1, §2, §3, §4

[5] = rats, 3 h after a 10 mg/kg oral dose, vs vehicle cohort

Row | SMILES | change in vivo at 10 mg/kg [1, 5] [%] | efflux ratio at 2 h (P-gp) | Papp A→B at 2 h [2] [×10⁻⁶ cm/s] | also measured
1 | CN1C(=N)N[C@](C)(c2cc(NC(=O)c3ccc(F)cn3)ccc2F)CC1=O [Iminopyrimidinone 25] | -11 | 10.6 | 2.2 | –
2 | CN1C(=N)N[C@](C)(c2cc(NC(=O)c3ccc(C(F)(F)F)cn3)ccc2F)CC1=O [Iminopyrimidinone 26] | 0 | 11.3 | 1.7 | –
3 | CN1C(=N)N[C@](C)(c2cc(NC(=O)c3ccc(Cl)cn3)ccc2F)CS1(=O)=O [Example 34] | -51 | 3.1 | – | Ki [3]: 0.22 nM; Ki [4]: 0.949 nM
4 | CN1C(=N)N[C@](C)(c2cc(-c3ccc(F)c(C#N)c3)cs2)CS1(=O)=O [Example 46] | – | – | – | Ki [3]: 8.23 nM; Ki [4]: 46 nM
5 | Cc1cnc(C(=O)Nc2ccc(F)c([C@]3(C)CC(=O)N(C)C(=N)N3)c2)cn1 [Iminopyrimidinone 36] | – | 12.9 | 1.1 | –
6 | CN1C(=N)N[C@](C)(c2cc(-c3ccc(F)c(C#N)c3)cs2)CC1=O [Iminopyrimidinone 46] | – | 2.6 | 13.6 | –
7 | CN1C(=N)N[C@](C)(c2cc(NC(=O)c3ccc(F)cn3)ccc2F)CS1(=O)=O [Example 25] | -49 | – | – | –
8 | Cc1ccc(C(=O)Nc2ccc(F)c([C@]3(C)CC(=O)N(C)C(=N)N3)c2)nc1 [Iminopyrimidinone 35] | – | – | – | Caco-2 AP→BL (Caco-2 cell line): 0 nm/s
9 | CN1C(=N)N[C@](C)(c2cc(-c3cccc(C#N)c3)cs2)CC1=O [Iminopyrimidinone 45] | -5 | 2.6 | 17.4 | –
10 | CC#Cc1cncc(-c2cc(Cl)c([C@]3(C)CC(=O)N(C)C(=N)N3)s2)c1 [Iminopyrimidinone 52, reference compound] | – | – | 15.3 | –
11 | CN1C(=N)N[C@](C)(c2cc(NC(=O)c3ccc(Cl)cn3)ccc2F)CC1=O [Iminopyrimidinone 34, reference compound] | – | – | – | change in vivo at 10 mg/kg ([1]; po, 3 h): -19%; Caco-2 AP→BL (Caco-2 cell line): 0 nm/s
